Measured values from the Kinase Knowledgebase extract (Sharma et al. 2016).

Columns and labels:
[1] = biological target: MAPK14 (human) (UniProt Q16539); test: Enzyme Assay; settings: A375; concentration not given here
[2] = biological target: MAPK14 (human) (UniProt Q16539); test: Enzyme Assay; settings: A375; concentration not given here; remark: listed apart in the source

Sequence of MAPK14 (human) (Q16539 whole entry, looked up): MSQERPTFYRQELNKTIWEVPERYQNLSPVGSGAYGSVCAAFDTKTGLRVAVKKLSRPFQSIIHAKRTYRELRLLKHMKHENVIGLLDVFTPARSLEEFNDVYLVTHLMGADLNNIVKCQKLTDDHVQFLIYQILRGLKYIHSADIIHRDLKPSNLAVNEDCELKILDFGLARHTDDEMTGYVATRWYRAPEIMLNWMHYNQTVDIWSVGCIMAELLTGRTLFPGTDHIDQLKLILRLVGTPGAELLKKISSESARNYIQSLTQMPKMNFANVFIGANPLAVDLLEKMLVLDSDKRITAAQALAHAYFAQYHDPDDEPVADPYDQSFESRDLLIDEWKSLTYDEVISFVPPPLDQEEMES

Row | activity [1] [%] | activity [2] [%] | Structure (SMILES)
1 | 6.32 | 18.9 | N#CC(=C(/N)Sc1ccccc1N)/C(C#N)=C(\N)Sc1ccccc1N
2 | 25.3 | 34.7 | COc1cccc(-c2cc(=O)c3ccccc3o2)c1N
